The results in this text go back to patent US8778935B2 (Centro Nacional de Investigaciones Oncologicas (CNIO), priority 2009, dated 2014).

T1 sequence (P42336 whole entry): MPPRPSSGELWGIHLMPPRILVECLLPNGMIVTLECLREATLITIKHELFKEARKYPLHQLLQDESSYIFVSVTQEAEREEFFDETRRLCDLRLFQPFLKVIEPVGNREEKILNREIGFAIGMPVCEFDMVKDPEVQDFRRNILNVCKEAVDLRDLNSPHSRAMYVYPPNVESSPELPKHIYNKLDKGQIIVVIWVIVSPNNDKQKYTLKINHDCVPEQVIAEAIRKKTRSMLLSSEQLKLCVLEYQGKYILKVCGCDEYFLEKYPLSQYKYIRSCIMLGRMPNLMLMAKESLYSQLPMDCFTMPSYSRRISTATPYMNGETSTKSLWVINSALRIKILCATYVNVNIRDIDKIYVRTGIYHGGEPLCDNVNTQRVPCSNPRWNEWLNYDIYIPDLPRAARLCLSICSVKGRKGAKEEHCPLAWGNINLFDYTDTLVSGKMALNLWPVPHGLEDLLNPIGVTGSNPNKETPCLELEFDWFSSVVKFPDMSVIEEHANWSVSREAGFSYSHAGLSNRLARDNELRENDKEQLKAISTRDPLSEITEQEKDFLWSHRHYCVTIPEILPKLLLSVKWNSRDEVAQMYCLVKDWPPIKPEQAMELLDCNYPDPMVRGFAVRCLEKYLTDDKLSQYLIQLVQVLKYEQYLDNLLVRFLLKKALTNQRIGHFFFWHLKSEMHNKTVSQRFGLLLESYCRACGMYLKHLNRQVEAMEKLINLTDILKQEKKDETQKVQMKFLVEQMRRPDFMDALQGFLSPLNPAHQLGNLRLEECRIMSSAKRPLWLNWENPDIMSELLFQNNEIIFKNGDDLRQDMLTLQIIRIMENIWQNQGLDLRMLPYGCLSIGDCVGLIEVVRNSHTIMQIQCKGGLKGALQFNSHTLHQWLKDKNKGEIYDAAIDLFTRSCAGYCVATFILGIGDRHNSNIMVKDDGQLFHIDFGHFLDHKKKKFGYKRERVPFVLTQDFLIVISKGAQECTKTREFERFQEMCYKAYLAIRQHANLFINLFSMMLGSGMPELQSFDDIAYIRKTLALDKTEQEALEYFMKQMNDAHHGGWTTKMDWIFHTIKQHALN
T1 sequence (P27986 whole entry partner): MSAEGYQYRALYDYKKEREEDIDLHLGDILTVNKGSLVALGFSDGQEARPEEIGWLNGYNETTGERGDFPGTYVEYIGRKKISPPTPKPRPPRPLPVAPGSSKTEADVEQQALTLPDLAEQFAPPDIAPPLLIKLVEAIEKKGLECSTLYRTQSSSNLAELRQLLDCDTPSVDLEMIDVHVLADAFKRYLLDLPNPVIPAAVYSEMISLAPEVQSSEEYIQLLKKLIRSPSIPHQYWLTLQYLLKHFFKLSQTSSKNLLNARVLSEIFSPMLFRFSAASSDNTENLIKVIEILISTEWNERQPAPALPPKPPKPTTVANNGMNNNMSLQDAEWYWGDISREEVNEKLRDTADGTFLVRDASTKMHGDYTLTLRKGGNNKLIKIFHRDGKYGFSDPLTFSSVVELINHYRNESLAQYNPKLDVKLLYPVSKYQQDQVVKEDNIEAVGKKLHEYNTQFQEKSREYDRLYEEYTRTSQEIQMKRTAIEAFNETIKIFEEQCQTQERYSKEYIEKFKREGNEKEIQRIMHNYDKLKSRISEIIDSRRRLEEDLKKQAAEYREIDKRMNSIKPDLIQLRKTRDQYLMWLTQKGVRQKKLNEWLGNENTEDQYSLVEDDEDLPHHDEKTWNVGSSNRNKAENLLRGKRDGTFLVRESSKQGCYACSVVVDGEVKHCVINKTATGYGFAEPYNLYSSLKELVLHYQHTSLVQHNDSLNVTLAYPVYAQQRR

The first experiment has as its target T1, PI3K (p110α/p85α) (Homo sapiens, UniProt P42336).
T1 construct: purchased Carna Biosciences 07CBS-0402A
Description: PI3K Activity Assay (ADP Hunter Plus). Format: biochemical. Conditions: PI3Kα activity, quantitative results; read-out: PI3Kα IC50. The method, then:
The kinase activity was measured by using the commercial ADP Hunter™ Plus assay available from DiscoveRx (#33-016), which is a homogeneous assay to measure the accumulation of ADP, a universal product of kinase activity. […] Reaction was carried out for 1 hour at 25° C. Reagent A and B were sequentially added to the wells and plates were incubated for 30 min at 37° C. […] Values were normalized against the control activity included for each enzyme (i.e., 100% PI3 kinase activity, without compound). These values were plot against the inhibitor concentration and were fit to a sigmoid dose-response curve by using the Graphad software.
As usually defined, the IC50 is the point on the concentration scale where inhibition reaches its midpoint. On to `Cc1cn2cc(-c3cnc(N)nc3)nc(N3CCOCC3)c2n1` [2-181], for which the concentration for half-maximal inhibition (IC50) was 110 nM.
The same measure, in the same setting: in the case of `CCOC(=O)N1CCC(NC(=O)c2cn3cc(-c4cccc5[nH]ncc45)nc(N4CCOCC4)c3n2)CC1` [2-182] it was 245 nM; in that of `CS(=O)(=O)N1CCN(Cc2nc3c(N4CCOCC4)nc(-c4cccc5[nH]ncc45)cn3c2Br)CC1` [2-183], 170 nM.
Consider `Cc1nc(N)ncc1-c1cn2cc(CN3CCN(S(C)(=O)=O)CC3)nc2c(N2CCOCC2)n1` [2-200], for which the IC50 turned out to be 32 nM.
The same measure, in the same setting: the result for `CS(=O)(=O)N1CCN(Cc2cn3cc(-c4ccc(C#N)nc4)nc(N4CCOCC4)c3n2)CC1` [2-201] reads 3300 nM; that for `COc1ccncc1-c1cn2cc(CN3CCN(S(C)(=O)=O)CC3)nc2c(N2CCOCC2)n1` [2-204], 10000 nM.
Still for that read-out and setting: the result for `CS(=O)(=O)N1CCN(Cc2cn3c(Cl)c(-c4ccc(C#N)nc4)nc(N4CCOCC4)c3n2)CC1` [2-206] reads 3700 nM.
`CNc1ncc(-c2nc(N3CCOCC3)c3nc(CN4CCN(S(C)(=O)=O)CC4)cn3c2Cl)cn1` [2-207]: the IC50 worked out at 11 nM.
Still for that read-out and setting: the result for `C[C@@H]1CN(C(=O)OC(C)(C)C)C[C@H](C)N1Cc1cn2cc(-c3cnc(N)nc3)nc(N3CCOCC3)c2n1` [2-218] reads 28 nM.
On the same count and under the same terms, the result for `COC(=O)CC1COCCN1c1nc(-c2cnc(N)nc2)cn2cc(C)nc12` (stereo not drawn) [2-224] reads 25400 nM; that for `Nc1ncc(-c2cn3cc(CN4CCNCC4)nc3c(N3CCOCC3)n2)cn1` [2-226], 77 nM; that for `COC(=O)C1COCCN1c1nc(-c2cnc(N)nc2)cn2cc(C)nc12` (stereo not drawn) [2-227], 6090 nM.
The same measure, in the same setting: the result for `Nc1ncc(-c2cn3cc(CN4CCC(O)CC4)nc3c(N3CCOCC3)n2)cn1` [2-229] reads 114 nM; that for `CN(C)CC(=O)N1CCN(Cc2cn3cc(-c4cnc(N)nc4)nc(N4CCOCC4)c3n2)CC1` [2-230], 34 nM; that for `CC(=O)O[C@H](C)C(=O)N1CCN(Cc2cn3cc(-c4cnc(N)nc4)nc(N4CCOCC4)c3n2)CC1` [2-231], 85 nM.
Regarding `CC(C)(c1cn2cc(-c3cnc(N)nc3)nc(N3CCOCC3)c2n1)N1CCN(S(C)(=O)=O)CC1` [2-242], the concentration for half-maximal inhibition (IC50) stood at 16 nM.
As for `Cc1cnc2c(N3CCOCC3)nc(-c3ccc(NC(=O)Nc4cccc(C(=O)O)c4)cc3)cn12` [2-244], the IC50 was 144 nM.

Still in this experiment, the particulars now being: quantitative results of Table 4; read-out: PI3Kα IC50.
In the case of `CS(=O)(=O)N1CCN(Cc2cn3cc(-c4ccc(N)cc4)nc(N4CCOCC4)c3n2)CC1` [2-89], the concentration for half-maximal inhibition (IC50) is 33000 nM.
Same read-out and setting: in the case of `CS(=O)(=O)N1CCN(Cc2cn3cc(-c4cn[nH]c4)nc(N4CCOCC4)c3n2)CC1` [2-90] it was 6000 nM.
On the same count and under the same terms, the result for `NC(=O)c1cn2cc(-c3ccncc3)nc(N3CCOCC3)c2n1` [2-91] reads 3900 nM; that for `NC(=O)c1cn2cc(-c3cccc4[nH]ccc34)nc(N3CCOCC3)c2n1` [2-94], 944 nM.
Still for that read-out and setting: in the case of `NC(=O)c1cn2cc(-c3c(F)ccc4[nH]ccc34)nc(N3CCOCC3)c2n1` [2-95] it was 891 nM.
Turning to `CC(C)(C)OC(=O)N1CCC2(CCN(Cc3cn4cc(-c5cccc6[nH]ncc56)nc(N5CCOCC5)c4n3)CC2)C1` [2-97], the half-maximal inhibitory concentration (IC50) was found to be 4500 nM.
The same measure, in the same setting: the result for `CC(C)(C)OC(=O)N1CCC2(CCN(Cc3cn4cc(-c5cccc6[nH]ncc56)nc(N5CCOCC5)c4n3)CC2)CC1` [2-98] reads 7200 nM; that for `CC(C)(C)OC(=O)N1CC2CN(Cc3cn4cc(-c5cccc6[nH]ncc56)nc(N5CCOCC5)c4n3)CC2C1` (stereo not drawn) [2-99], 7900 nM; that for `CC(C)(C)OC(=O)N1CCC2(CCN(Cc3cn4cc(-c5cccc6[nH]ncc56)nc(N5CCOCC5)c4n3)C2)CC1` [2-100], 5300 nM.
The same measure, in the same setting: the result for `NC(=O)c1cn2cc(-c3cccc4[nH]cc(Cl)c34)nc(N3CCOCC3)c2n1` [2-103] reads 34000 nM; that for `NC(=O)c1cn2c(Cl)c(-c3cccc4[nH]cc(Cl)c34)nc(N3CCOCC3)c2n1` [2-104], 93000 nM; that for `NC(=O)c1cn2cc(-c3c(F)ccc4[nH]cc(Cl)c34)nc(N3CCOCC3)c2n1` [2-105], 123000 nM.
Same read-out and setting: in the case of `NC(=O)c1cn2c(Cl)c(-c3c(F)ccc4[nH]cc(Cl)c34)nc(N3CCOCC3)c2n1` [2-106] it was 28000 nM; in that of `COC(=O)Cc1cn2cc(-c3cccc4[nH]ncc34)nc(N3CCOCC3)c2n1` [2-107], 2600 nM.
As for `COc1ccc(-c2nc(N3CCOCC3)c3nc(CN4CCN(S(C)(=O)=O)CC4)cn3c2Cl)cn1` [2-109], the IC50 amounted to 1000 nM.
In the case of `c1cc(-c2cn3cc(CN4CCC5(CCNCC5)CC4)nc3c(N3CCOCC3)n2)c2cn[nH]c2c1` [2-111], the IC50 came out at 813 nM.
For the compound `c1cc(-c2cn3cc(CN4CC5CNCC5C4)nc3c(N3CCOCC3)n2)c2cn[nH]c2c1` (stereo not drawn) [2-117], the IC50 was 851 nM.
On the same count and under the same terms, the result for `c1cc(-c2cn3cc(CN4CCC5(CCNCC5)C4)nc3c(N3CCOCC3)n2)c2cn[nH]c2c1` [2-118] reads 1500 nM; that for `NC(=O)c1cn2cc(-c3cnc(N)nc3)nc(N3CCCCC3)c2n1` [2-120], 1300 nM.
Turning to `CS(=O)(=O)N1CCN(Cc2cn3cc(-c4c(F)ccc5[nH]cc(Cl)c45)nc(N4CCOCC4)c3n2)CC1` [2-122], the half-inhibitory concentration (IC50) is 50000 nM.
On the same count and under the same terms, in the case of `Cc1ccc(-c2cn3cc(CN4CCN(S(C)(=O)=O)CC4)nc3c(N3CCOCC3)n2)cn1` [2-126] it was 776 nM.
The same measure, in the same setting: in the case of `CS(=O)(=O)N1CCC2(CCN(Cc3cn4cc(-c5cccc6[nH]ncc56)nc(N5CCOCC5)c4n3)C2)CC1` [2-129] it was 2500 nM; in that of `O=C1NCCC12CCN(Cc1cn3cc(-c4cccc5[nH]ncc45)nc(N4CCOCC4)c3n1)CC2` [2-130], 1400 nM; in that of `O=C1CC2(CCN(Cc3cn4cc(-c5cccc6[nH]ncc56)nc(N5CCOCC5)c4n3)CC2)CN1` [2-131], 14000 nM.
Same read-out and setting: in the case of `CS(=O)(=O)N1CCC2(CCN(Cc3cn4cc(-c5cccc6[nH]ncc56)nc(N5CCOCC5)c4n3)CC2)C1` [2-134] it was 5200 nM; in that of `CCOC(=O)c1cn2cc(-c3cnc(N)nc3)nc(N3CCOCC3)c2n1` [2-138], 12 nM; in that of `CN(C)CCNC(=O)c1cn2cc(-c3cccc4[nH]ncc34)nc(N3CCOCC3)c2n1` [2-141], 65 nM.
With `CN(C)CCNC(=O)c1cn2cc(-c3cccnc3)nc(N3CCOCC3)c2n1` [2-147], the concentration for half-maximal inhibition (IC50) was 832 nM.
On the same count and under the same terms, the result for `CS(=O)(=O)N1CCC2(CCN(Cc3cn4cc(-c5cccc6[nH]ncc56)nc(N5CCOCC5)c4n3)CC2)CC1` [2-149] reads 1300 nM; that for `CS(=O)(=O)N1CCC2(CC1)CN(Cc1cn3cc(-c4cccc5[nH]ncc45)nc(N4CCOCC4)c3n1)C2` [2-150], 2800 nM; that for `Cc1ccncc1-c1cn2cc(CN3CCN(S(C)(=O)=O)CC3)nc2c(N2CCOCC2)n1` [2-152], 468 nM.
Same read-out and setting: the result for `COc1cc(C)c(-c2cn3cc(CN4CCN(S(C)(=O)=O)CC4)nc3c(N3CCOCC3)n2)cn1` [2-153] reads 2400 nM; that for `CC(=O)NCCNC(=O)c1cn2cc(-c3cccc4[nH]ncc34)nc(N3CCOCC3)c2n1` [2-157], 776 nM.
On the same count and under the same terms, the result for `CC(=O)NCCNC(=O)c1cn2cc(-c3cccnc3)nc(N3CCOCC3)c2n1` [2-158] reads 2300 nM.
In the case of `O=C(NCCN1CCOCC1)c1cn2cc(-c3cccnc3)nc(N3CCOCC3)c2n1` [2-159], the half-maximal inhibitory concentration (IC50) came out at 398 nM.
Still for that read-out and setting: the result for `Cc1cn2cc(-c3cnc(N)nc3)nc(-c3ccncc3)c2n1` [2-166] reads 1800 nM; that for `Cc1cn2cc(-c3cccc4[nH]ncc34)nc(-c3ccncc3)c2n1` [2-168], 26000 nM; that for `CS(=O)(=O)N1CCC2(CC1)CN(Cc1cn3cc(-c4cnc(N)nc4)nc(N4CCOCC4)c3n1)C2` [2-169], 110 nM.

The same experiment, now with this note: quantitative results; read-out: PI3Kα IC50.
For `CCOC(=O)c1cn2cc(-c3cccc(O)c3)nc(N3CCOCC3)c2n1` [2-01, ethyl 6-(3-hydroxyphenyl)-8-morpholinoimidazo[1,2-a]pyrazine-2-carboxylate], the half-maximal inhibitory concentration (IC50) amounted to 158 nM.

Still in this experiment, the particulars now being: semi-quantitative results; read-out: PI3Kα IC50 (semi-quantitative class).
Consider `CCOC(=O)c1cn2cc(-c3cccc(O)c3)nc(N3CCOCC3)c2n1` [2-01, ethyl 6-(3-hydroxyphenyl)-8-morpholinoimidazo[1,2-a]pyrazine-2-carboxylate], for which the half-maximal inhibitory concentration (IC50) fell in the range of 100 to 1000 nM.

A further experiment has as its system phospho-Ser-473-Akt. The experiment is described as follows: PI3K signalling: AKT phosphorylation inhibition, Western blot analysis. To be noted: Homo sapiens, cell assay, read-out: IC50 of AKT Phosphorylation Inhibition (p-AKT cell). Format: cell-based. Here is the method:
Cell culture: The cell lines were obtained from the American Type Culture Collection (ATCC). U2OS (human osteosarcoma) was cultured in Dulbecco's modified Eagle's medium (DMEM). PC3 (human prostate carcinoma), MCF7 (human breast cardinoma), HCT116 (human colon carcinoma), […], U251 (human glyoblastoma) were grown in RPMI. All media were supplemented with 10% fetal bovine serum (FBS) (Sigma) and antibiotics-antimycotics. Cell were maintained in a humidified incubator at 37° C. with 5% CO2 and passaged when confluent using trypsin/EDTA.
AKT phosphorylation Inhibition. Western Blot Analysis: Subconfluent cells were incubated under different conditions and washed twice with TBS prior to lysis. Lysis buffer was added containing 50 mM Tris HCl, 150 mM NaCl, 1% NP-40, 2 mM Na3VO4, 100 mM NaF, 20 mM Na4P2O7 and protease inhibitor cocktail (Roche Molecular Biochemicals). The proteins were resolved on 10% SDS-PAGE and transferred to nitrocellulose membrane (Schleicher & Schuell, Dassel, Germany). The membranes were incubated overnight at 4° C. with antibodies specific for Akt, phospho-Ser-473-Akt (Cell Signaling Technology) and α-tubulin (Sigma), they were washed and then incubated with IRDye800 conjugated anti-mouse and Alexa Fluor 680 goat anti-rabbit IgG secondary antibodies. The bands were visualized using an Odyssey infrared imaging system (Li-Cor Biosciences).
For `CCOC(=O)c1cn2cc(-c3cccc(O)c3)nc(N3CCOCC3)c2n1` [2-01, ethyl 6-(3-hydroxyphenyl)-8-morpholinoimidazo[1,2-a]pyrazine-2-carboxylate], the IC50 came to 132 nM.
On the same count and under the same terms, the result for `CS(=O)(=O)N1CCN(Cc2cn3cc(-c4cccc(O)c4)nc(N4CCOCC4)c3n2)CC1` [2-10, 1-(4-((6-(3-hydroxyphenyl)-8-morpholinoimidazo[1,2-a]pyrazin-2-yl)methyl)-piperazin-1-yl)sulfonylmethane] reads 48 nM; that for `CS(=O)(=O)N1CCN(Cc2cn3cc(-c4cccc5[nH]ncc45)nc(N4CCOCC4)c3n2)CC1` [2-17, 6-(1H-indazol-4-yl)-2-((4-sulfonylmethylpiperazin-1-yl)methyl)-8-morpholino-imidazo[1,2-a]pyrazine], 391 nM.
